Reference: patent US6960470B1 (priority 1998, dated 2005)

System: hippocampal slices from wt and Δ9 mutant (PS-1) animals
Type: cell-based
Conditions: flunitrazepam in the bathing medium; Δ9 mutant slices

CN1C(=O)CN=C(c2ccccc2F)c2cc([N+](=O)[O-])ccc21 [flunitrazepam]
potentiation in mutants (+FLU) compared with the wt (−FLU): potentiation to almost the wt levels
